Laboratory results: US6429209B2, “Methods for treating irritable bowel syndrome” (SmithKline Beecham Corporation, priority 1997, dated 2002)
Read-outs that look alike come from different tables or passages of the source.

Assays:
[1] = test system: IBS patients; settings: cited from earlier work
[2] = test system: IBS patients; assay: 12-week placebo-controlled clinical study of alosetron (1, 2, 4 or 8 mg BID) in nonconstipated IBS patients; format: in vivo, human; settings: for % Responders (adequate relief of IBS pain and discomfort): 12 weeks; for % Days with Urgency / Stool # per day / Stool Consistentcy: mean, week 9-12 interval; for Stool Consistentcy: score 1= very hard to 5= watery; for % Weeks with adequate relief: median
Procedure: Three hundred and seventy IBS patients were randomised for study: 80 were randomised to treatment with placebo BID, 72 to 1 mg BID alosetron, 74 to 2 mg BID alosetron, 76 to 4 mg BID alosetron and 68 to 8 mg BID alosetron. […] Patients were required to have symptoms which fulfilled the Rome Criteria for IBS (5) for at least 6 months. […] Daily and weekly symptom data were collected using a recently described electronic touch-tone telephone based system (24,25). Patients underwent a 2 week screening period with no IBS treatment to ensure sufficient baseline level of abdominal pain as well as compliance with the data collection system. Pain was assessed daily on a 5 point scale (0=none; 1=mild; 2=moderate; 3=intense; 4=severe). Average baseline pain over the 2 week screening period was required to be between 1.5-3.3, inclusive, and at least 4 days with at least moderate pain was required for enrolment into the study. Stool consistency data were also collected (1=very hard; 2=hard; 3=formed; 4=loose; and 5=watery). During the screening period an average stool consistency score of ≧2.5 was required for entry into the study in order to exclude those with predominant constipation. Following the screening period, eligible patients were randomised with equal allocation to 12 weeks of study medication (BID) of placebo or alosetron 1, 2, 4 or 8 mg taken prior to meals. Patients were followed for 2 weeks post-treatment. During the screening period, treatment phase and follow-up period, patients were asked daily questions about their IBS symptoms. Once every 7 days, during the treatment phase of the study, patients responded to an additional question as to whether they had obtained adequate relief of their IBS-related abdominal pain and discomfort during the previous 7 days. For this study, a responder was prospectively defined as a patient who completed the treatment phase of the study and reported adequate relief of their IBS pain and discomfort for at least 6 weeks. […] In addition, a monthly responder was defined as a patient who reported adequate relief of their IBS pain and discomfort for at least 2 weeks per month. For the monthly analysis, a last observation carried forward procedure was employed, whereby a month with all missing weeks was assigned the number of weeks with adequate relief from the previous non-missing month. Thus, this analysis satisfied the Intent-to-Treat principle by including all patients and months. Treatment groups were compared for the proportion of patients defined as responders, for both endpoints, using a Mantel-Haenszel test stratified for investigator cluster. Finally, the proportion of weeks with adequate relief was compared between treatment groups using a log-rank test. Daily stool consistency scores and daily number of bowel movements were averaged over the baseline, weekly for weeks 1-4, and monthly (weeks 1-4, 5-8, and 9-12) intervals. In addition, the proportion of days patients experienced a sense of urgency was calculated over the monthly and weekly intervals. For the monthly intervals, the treatment groups were compared for change from baseline using a van Elteren test adjusted for investigator cluster. For the weekly intervals, the treatment groups were compared at each week using a van Elteren test adjusted for-investigator cluster.

[3] = test system: normal volunteers; settings: cited from earlier work
[4] = female patients, alosetron 1 mg BID
[5] = female patients, alosetron 1 mg BID, month 1
[6] = female patients, alosetron 1 mg BID, month 2
[7] = female patients, alosetron 1 mg BID, month 3
[8] = female patients, alosetron 2 mg BID
[9] = female patients, alosetron 4 mg BID
[10] = female patients, alosetron 8 mg BID

Compound: Cc1[nH]cnc1CN1CCc2c(c3ccccc3n2C)C1=O [Alosetron, 2,3,4,5-tetrahydro-5-methyl-2-[(5-methyl-1 H-imidazol-4-yl)methyl]-1H-pyrido[4,3-b]indol-1-one]
- colonic transit ([1]; IBS patients, preliminary reports): slow colonic transit
- abdominal pain ([1]; preliminary reports): improve abdominal pain
- abdominal pain and bowel function ([2]; female IBS patients): significantly improved
- more responders for adequate relief as compared to placebo [2, 4]: 27%
- % Responders (adequate relief of IBS pain and discomfort) [2, 4]: 60%
- monthly adequate relief ([2]; female patients, alosetron 1 mg BID, each month): statistically significant improvement
- % Responders, monthly intervals (adequate relief) [2, 5]: 53%
- increase in monthly responders above placebo [2, 5]: 21%
- % Responders, monthly intervals (adequate relief) [2, 6]: 62%
- increase in monthly responders above placebo [2, 6]: 20%
- % Responders, monthly intervals (adequate relief) [2, 7]: 60%
- increase in monthly responders above placebo [2, 7]: 24%
- % Responders (adequate relief of IBS pain and discomfort) [2, 8]: 59%
- % Responders (adequate relief of IBS pain and discomfort) [2, 9]: 51%
- % Responders (adequate relief of IBS pain and discomfort) [2, 10]: 52%
- time of treatment after which a statistically significant benefit over placebo in bowel parameters was achieved ([2]; female patients, benefit persisted throughout 12 week treatment): 1 week
- % Days with Urgency [2, 4]: 33.0%
- Stool # per day [2, 4]: 1.4
- Stool Consistentcy [2, 4]: 2.1
- % Days with Urgency [2, 8]: 35.9%
- Stool # per day [2, 8]: 1.7
- Stool Consistentcy [2, 8]: 2.2
- % Days with Urgency [2, 9]: 37.8%
- Stool # per day [2, 9]: 1.8
- Stool Consistentcy [2, 9]: 2.4
- % Days with Urgency [2, 10]: 41.5%
- Stool # per day [2, 10]: 1.3
- Stool Consistentcy [2, 10]: 1.8
- % Weeks with adequate relief [2, 4]: 58%
- % Weeks with adequate relief [2, 8]: 50%
- % Weeks with adequate relief [2, 9]: 50%
- % Weeks with adequate relief [2, 10]: 50%
- stool consistency, bowel movement frequency and proportion of days with urgency as compared to placebo ([2]; female patients, most doses of alosetron): significantly improved
- proportion of weeks with adequate relief ([2]; male patients): no meaningful benefit
- % Responders (adequate relief of IBS pain and discomfort) ([2]; male patients, alosetron 1 mg BID): 20%
- % Responders (adequate relief of IBS pain and discomfort) ([2]; male patients, alosetron 2 mg BID): 50%
- % Responders (adequate relief of IBS pain and discomfort) ([2]; male patients, alosetron 4 mg BID): 54%
- % Responders (adequate relief of IBS pain and discomfort) ([2]; male patients, alosetron 8 mg BID): 52%
- responders for adequate relief relative to placebo ([2]; male population, any dose of alosetron): No meaningful improvement relative to placebo
- bowel-related functions with the exception of stool consistency, versus placebo ([2]; males): no significant improvement over placebo
- monthly adequate relief relative to placebo ([2]; males, any month, any dose of alosetron): No improvement relative to placebo
- stool consistency ([2]; males, doses of alosetron higher than 1 mg BID): improved significantly
- tolerability ([2]; nonconstipated female IBS patients): well tolerated

Compound: CN1C2CCCC1CC(NC(=O)c1nn(C)c3ccccc13)C2 (stereo not shown) [granisetron]
- post-prandial motor activity ([1]; IBS patients): reduce post-prandial motor activity
- rectal sensitivity ([1]; IBS patients): decrease in rectal sensitivity

Compound: Cc1nccn1CC1CCc2c(c3ccccc3n2C)C1=O (stereo not shown) [ondansetron]
- contractile response of the colon ([3]; healthy volunteers, early postprandial period): inhibits the contractile response of the colon
- colonic transit ([3]; normal volunteers): slow colonic transit
- stool consistency ([1]; diarrhoea-predominant IBS patients): improves stool consistency
- rectal compliance ([1]; patients with IBS): increases rectal compliance
